Test results taken from patent US6005007A, “Retinoids, methods for their production and use” (priority 1997, dated 1999).
Like-named read-outs stand apart in the source and are kept apart here.

What was measured:
AML-193 = test: Incorporation of 3H-thymidine, AML-193; conditions: Homo sapiens, read-out: TdR IC50 AML-193 (nM)
ME 180 = test: Incorporation of 3H-thymidine, ME 180; assay type: cell-based; conditions: Homo sapiens
RARβ [1] = biological target: T1, RARβ (Homo sapiens, UniProt P10826); test: Receptor binding, RARβ; conditions: tritiated retinoid competition
T1 sequence (P10826 1-448 isoform P10826-2): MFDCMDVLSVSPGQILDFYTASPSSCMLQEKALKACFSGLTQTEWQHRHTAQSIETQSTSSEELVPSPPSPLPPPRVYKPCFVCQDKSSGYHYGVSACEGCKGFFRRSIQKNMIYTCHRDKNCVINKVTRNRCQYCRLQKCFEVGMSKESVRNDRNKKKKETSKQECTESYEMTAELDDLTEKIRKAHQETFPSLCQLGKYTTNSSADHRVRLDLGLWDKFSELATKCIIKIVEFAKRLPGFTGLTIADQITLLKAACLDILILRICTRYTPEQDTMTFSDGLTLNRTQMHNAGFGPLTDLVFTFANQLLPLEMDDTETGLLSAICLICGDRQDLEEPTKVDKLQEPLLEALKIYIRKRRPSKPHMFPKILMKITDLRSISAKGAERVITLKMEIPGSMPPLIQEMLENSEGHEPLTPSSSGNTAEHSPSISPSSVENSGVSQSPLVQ

RARγ [2] = biological target: T2, RARγ (Homo sapiens, UniProt P13631); test: Co-transfection assay, RARγ agonist activity; assay type: cell-based; set-up: expressed in transfected cells; host or cells: CV-1 (African green monkey kidney fibroblasts); conditions: CV-1 cells, luciferase reporter, read-out: RARγ Pot
T2 sequence (P13631 1-454): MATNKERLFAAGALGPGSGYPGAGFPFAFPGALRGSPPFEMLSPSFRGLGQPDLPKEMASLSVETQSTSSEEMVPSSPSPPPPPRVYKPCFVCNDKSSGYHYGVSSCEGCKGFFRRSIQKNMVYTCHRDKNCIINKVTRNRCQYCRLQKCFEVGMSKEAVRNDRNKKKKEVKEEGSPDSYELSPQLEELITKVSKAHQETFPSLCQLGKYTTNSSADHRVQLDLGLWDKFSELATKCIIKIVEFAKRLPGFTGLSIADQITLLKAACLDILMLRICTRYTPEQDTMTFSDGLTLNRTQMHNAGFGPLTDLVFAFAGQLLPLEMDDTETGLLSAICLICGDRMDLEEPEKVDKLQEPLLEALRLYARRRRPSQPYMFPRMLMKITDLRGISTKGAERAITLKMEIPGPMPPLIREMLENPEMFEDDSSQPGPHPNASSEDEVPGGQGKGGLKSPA

RARγ [3] = biological target: T2, RARγ; test: Receptor binding, RARγ; conditions: tritiated retinoid competition
RXRγ = biological target: T3, RXRγ (Mus musculus, UniProt P28705); test: Receptor binding, RXRγ; conditions: tritiated retinoid competition
T3 construct: expressed in transfected cells; host or cells: CV-1 (African green monkey kidney fibroblasts)
T3 sequence (P28705 1-463): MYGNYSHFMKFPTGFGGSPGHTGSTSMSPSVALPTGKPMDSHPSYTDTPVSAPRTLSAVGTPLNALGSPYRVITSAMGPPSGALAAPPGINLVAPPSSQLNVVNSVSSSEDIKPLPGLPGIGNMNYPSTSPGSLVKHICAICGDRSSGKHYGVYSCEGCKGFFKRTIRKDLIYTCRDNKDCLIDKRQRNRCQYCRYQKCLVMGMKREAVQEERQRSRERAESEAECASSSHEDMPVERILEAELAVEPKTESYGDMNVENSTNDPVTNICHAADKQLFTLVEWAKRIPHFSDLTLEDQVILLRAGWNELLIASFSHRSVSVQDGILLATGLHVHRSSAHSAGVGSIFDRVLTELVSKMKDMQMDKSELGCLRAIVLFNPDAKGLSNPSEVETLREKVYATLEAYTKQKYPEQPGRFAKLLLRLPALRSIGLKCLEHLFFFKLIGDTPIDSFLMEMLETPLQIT

RARα [4] = biological target: T4, RARα (Homo sapiens, UniProt P10276); test: Receptor binding, RARα; conditions: tritiated retinoid competition
T4 sequence (P10276 1-462): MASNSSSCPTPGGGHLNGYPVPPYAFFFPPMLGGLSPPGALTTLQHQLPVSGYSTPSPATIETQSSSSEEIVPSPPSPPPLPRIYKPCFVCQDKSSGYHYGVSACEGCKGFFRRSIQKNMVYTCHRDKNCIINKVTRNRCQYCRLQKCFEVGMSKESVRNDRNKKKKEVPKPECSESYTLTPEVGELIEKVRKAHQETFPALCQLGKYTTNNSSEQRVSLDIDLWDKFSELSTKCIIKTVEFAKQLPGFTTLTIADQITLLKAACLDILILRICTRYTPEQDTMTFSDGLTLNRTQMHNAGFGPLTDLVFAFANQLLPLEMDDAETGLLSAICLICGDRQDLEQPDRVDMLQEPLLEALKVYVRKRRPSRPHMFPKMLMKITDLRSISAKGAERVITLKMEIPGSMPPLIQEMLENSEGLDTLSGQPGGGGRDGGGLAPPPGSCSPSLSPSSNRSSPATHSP

RARα [5] = biological target: T4, RARα; test: Co-transfection assay, RARα agonist activity; assay type: cell-based; set-up: expressed in transfected cells; host or cells: CV-1 (African green monkey kidney fibroblasts); conditions: CV-1 cells, luciferase reporter, read-out: RARα Pot
RARβ [6] = biological target: T1, RARβ; test: Co-transfection assay, RARβ agonist activity; assay type: cell-based; set-up: expressed in transfected cells; host or cells: CV-1 (African green monkey kidney fibroblasts); conditions: CV-1 cells, luciferase reporter, read-out: RARβ Pot
RPMI 8226 = test: Incorporation of 3H-thymidine, RPMI 8226; assay type: cell-based; conditions: Homo sapiens, 96 hours incubation, then 6 hours 3H-thymidine, read-out: TdR IC50 RPMI 8226

For `CC1=C(/C=C/C(C)=C\C=C\C(C)=C\C(=O)O)C(C)(C)CCC1` [Compound 9-cis, 9-cis retinoic acid], the IC50 (AML-193) was 113 nM and the IC50 (ME 180; ME-180, read-out: TdR IC50 ME 180 (nM)) was 180 nM.
Compound `CC(/C=C/CC1(c2cc3c(cc2C)C(C)(C)CCC3(C)C)CC1)=C\C(=O)O` [Compound 102, (2E, 4E)-6-[(3,5,5,8,8-Pentamethyl-5,6,7,8-tetrahydronaphthalen-2-yl)cyclopropan-1-yl]-3-methyl hexadienoic acid] has a Kd (RARβ [1]) greater than 5 µM, an EC50 (RARγ [2]) greater than 10 µM and a Kd (RARγ [3]) greater than 5 µM. It also gave a Kd (RXRγ) of 0.153 µM, a Kd (RARα [4]) greater than 5 µM and an EC50 (RARα [5]) greater than 10 µM. For the same compound, the EC50 (RARβ [6]) was greater than 10 µM.
Work on `CC(/C=C/CC1(c2cc(C(C)(C)C)cc(C(C)(C)C)c2)CC1)=C\C(=O)O` [Compound 105, (2E, 4E)-6-[(3,5-di-t-butylphenyl)cyclopropan-1-yl]-3-methyl hexadienoic acid] yielded a Kd (RARβ [1]) greater than 5 µM, a Kd (RARγ [3]) greater than 5 µM and a Kd (RARα [4]) greater than 5 µM.
For `C/C(=C\c1ccc(C(=O)O)cc1)c1ccc2c(c1)C(C)(C)CCC2(C)C` [TTNPB], the IC50 (AML-193) was 0.1 nM, the IC50 (RPMI 8226) was 0.0002 µM and the IC50 (ME 180; ME-180, 96 hours incubation, then 6 hours 3H-thymidine, read-out: TdR IC50 ME 180) was 0.4 nM.
